This is an account of results in US20200390902A1, “Antibody-Drug Conjugates Targeted at Human Aspartyl-(Asparaginyl)-B-Hydroxylase (HAAH)” (Panacea Pharmaceuticals, Inc., priority 2017, published 2020).

The subject of series [1] is H460 cells. Nature of the series: Lactate dehydrogenase (LDH) release assay, H460. The protocol: (§1) FIG. 6 depicts the effects of linker and payload on cytotoxicity to cancer cell H460. […] The Log of the antibody concentration in nM is shown on the X axis.
HAAH is highly expressed on the surface of cancer cells, but not on normal adult human cells. The specificity of SNS622-MC-DM1 was examined using human lung carcinoma cell line H460 and LONZA NHLF, a normal human lung fibroblasts (NHLF) cell line. Both cell lines were cultured in HG-DMEM (ThermoFisher Scientific Catalog No. 11965-092) supplemented with 20 mM HEPES (4-(2-hydroxyethyl)-1-piperazineethanesulfonic acid), 4 mM L-glutamine, 1 mM sodium pyruvate, 1× non-essential amino acids, 50 μg/ml gentamicin and 10% fetal bovine serum (FBS). H460 and NHLF cells were seeded into 96-well plates at 5,000 cells per well, following a 2-day FBS deprivation, and released by culture in complete culture medium containing 10% FBS. […] By 72 hours post treatment, cell death was determined by observing cell morphology using a phase contrast microscope at 150×.
The cell death was also quantified using lactate dehydrogenase (LDH) releasing assay. For the LDH assay, a mixture of a 35 μl aliquot of culture medium and 17.5 μl of substrate, enzyme, and dye solutions (Sigma, St. Louis, Mo., U.S.A.) was incubated at room temperature for 30 minutes, and absorbance was measured at 490 nm using a plate reader (ELx805; BioTek, Winooski, Vt., U.S.A.).

The test system of series [2] is MOLM-14 cells. Nature of the series: MTS cell viability assay, MOLM-14. It is filed as cell-based, human. The conditions noted are these: MOLM-14, 24 hours. The protocol: Human H460 cells were obtained from the American Type Culture Collection (ATCC; Manassas, Va., U.S.A.). […] Human MOLM-14 cells were obtained from Dr. Ashkan Emadi at University of Maryland (Baltimore. Md., U.S.A.). The MOLM-14 cells were seeded at a density of 5000 cells/well in 96-well plates and cultured in RPMI 1640 with 20% heat-inactivated FBS. The H460 and MOLM-14 cells were treated with naked antibodies or ADCs for 24 hours, starting at the time of cell seeding. By the end of experiment, the cell viability for both cell lines was determined quantitatively using CELL TITER 96 AQUOUS ONE SOLUTION cell proliferation assay, a colorimetric method for determining the number of viable cells (MTS; Promega, Madison. Wis., U.S.A.; Catalog No. G3582).

Series [3] concerns MIA-PaCa-2 ASPH cells. Put plainly: MTS cytotoxicity assay, MIA-PaCa-2 ASPH. The conditions noted are these: 10-50 nM, 48 hours. It is filed as cell-based, human. The procedure:
The in vitro specificity of SNS622-MC-DM1 was also examined using the human pancreas cell line MIA-PaCa-2 ASPH. This cell line has a high level expression of ASPH. MIA-PaCa-2 cells were seeded at a density of 2,000 cells/well and cultured in high-glucose (25 mM D-glucose) Dulbecco's Modified Eagle's Medium (DMEM) with 10% FBS at 37° C. in a humidified atmosphere containing 5% CO2. The cells were treated with 10 nM IgG1-MC-DM1, 20 nM IgG1-MC-DM1, 50 nM IgG1-MC-DM1, 10 nM SNS622-MC-DM1, 20 nM SNS622-MC-DM1, or 50 nM SNS622-MC-DM1 for 48 hours. IgG1-MC-DM1 is a control ADC obtained from Goodwin Biotechnology, having catalog No. DAGIC1194, The cytotoxicity of the ADCs was measured using an MTS assay kit (Promega, Catalog No, G3582). After treatment for 1 hour with the MTS solution, absorbance was measured using a microplate reader at a 490 nm wavelength, with a reference at 690 nm.
(Tetrazolium assays rely on reduction of a dye to a coloured formazan, in cell work by metabolically active cells.)

Series [4] concerns H460 cells. Put plainly: MTS cell viability assay, H460. It is filed as cell-based, human. The protocol:
Human H460 cells were obtained from the American Type Culture Collection (ATCC; Manassas, Va., U.S.A.). The H460 cells were seeded at a density of 5,000 cells/well in 96-well plates and cultured in HG-DMEM (ThermoFisher Scientific, Waltham. Mass., U.S.A.; Catalog No. 11965-092) supplemented with 20 mM HEPES, 4 mM L-glutamine, 1 mM sodium pyruvate, 1× non-essential amino acids, 50 μg/ml gentamicin, and 10% fetal bovine serum (FBS)). Human MOLM-14 cells were obtained from Dr. Ashkan Emadi at University of Maryland (Baltimore. Md., U.S.A.). The MOLM-14 cells were seeded at a density of 5000 cells/well in 96-well plates and cultured in RPMI 1640 with 20% heat-inactivated FBS. The H460 and MOLM-14 cells were treated with naked antibodies or ADCs for 24 hours, starting at the time of cell seeding. By the end of experiment, the cell viability for both cell lines was determined quantitatively using CELL TITER 96 AQUOUS ONE SOLUTION cell proliferation assay, a colorimetric method for determining the number of viable cells (MTS; Promega, Madison. Wis., U.S.A.; Catalog No. G3582).
as §1
The bioactivities of these SNS622 ADCs were examined using H460 cells. The cells were treated for 48 hours with these SNS622-MC-DM1s, or with SNS622 as control. Cell viability was evaluated at the end of the experiment using an MTS assay.
SNS622-MC-vc-PAB-DM1 and SNS622-MC-MMAE were also synthesized under different initial DAR ratios of 2.5:1, 5:1 and 10:1 at fixed pH8. The 460 cells were treated for 72 hours with ADCs SNS622-MC-vc-PAB-DM1 at with OAR 2.5:1; 5:1; and 10:1, or SNS622-MC-MMAE at with DAR 2.5:1; 5:1; and 10:1. The cell viability and cell death were separately quantified with […] and lactate dehydrogenase (LDH) release assays. FIG. 8A depicts a graph of the MTA quantification results expressed as percentage of untreated control. FIG. 8B depicts a graph of the LDH assay results expressed as percentage of 512 nM DM1-elicited maximal LDH release. The Log of the antibody concentration in nM is shown on the X axis.

The subject of series [5] is normal human lung fibroblasts (NHLF). Put plainly: Cell morphology by phase contrast microscope, NHLF. The format is cell-based. The conditions noted are these: 32 nM, 72 hours.

“Also recorded” adds a separate entry of the source. Read-outs that look alike come from different tables or passages of the source.

On to “SNS622-MC-DM1: SNS622 anti-HAAH monoclonal antibody conjugated to mertansine (DM1) by the non-cleavable linker maleimidocaproyl (MC)”, for which the “Increase in release of LDH compared to untreated cells” value in series [1] (H460, 32 nM, 72 hours) was 39 ×. Further, the CC50 in series [1] (read-out: LC50 of LDH, H460, 72 hours, reaction DAR 10:1) turned out to be 36 nM. Also, in series [2], the “Effect on MOLM-14 cell viability / growth (MTS)” value is “inhibit in vitro cell growth of both H460 and MOLM-14; also recorded: greatest suppression in the growth of MOLM-14 cells”. The “Reduction of relative absorbance (MTS)” value in series [3] is given as “about 16%”. Further, in series [4] (H460, 24 hours), the “Effect on H460 cell viability / growth (MTS)” value was “decreased the H460 cell viability; also recorded: inhibit in vitro cell growth of both H460 and MOLM-14”. Besides, the EC50 in series [4] (H460, 24 hours, read-out: EC50, killing of H460 cells (MTS)) is about 15 nM. For the same substance, the IC50 is 64 nM in series [4] (H460, 72 hours, reaction DAR 10:1, read-out: IC50 of MTS); 15 nM in series [4] (stated for both cancer cell lines (H460 and MOLM-14), read-out: IC50, suppressing cell growth). Further, the “Cell density (morphology)” value in series [5] is “no significant reduction of cell density”.

As usually defined, the EC50 is the midpoint of the concentration-response curve. As usually defined, the IC50 is the concentration needed to halve the response being measured.
